The record followed here is patent US9452159B2, “6-aminopyridine-3-ol derivatives or pharmaceutically acceptable salts thereof, and pharmaceutical composition containing same as active ingredients for preventing or treating diseases caused by angiogenesis” (Research Cooperation Foundation of Yeungnam University, priority 2011, dated 2016).

Data set [1] deals with chorioallantoic membrane (CAM). The data set can be described thus: Chorioallantoic membrane (CAM) assay, VEGF-derived angiogenesis. It is filed as in vivo, chick. The settings on record: for IC50: CAM treated with various concentrations, FIG. 3, read-out: IC50 with respect to angiogenesis inhibition. As for the experimental part:
To examine angiogenesis inhibiting effects in vivo, CAM assay was performed (Nguyen Metal., Microvascular Res., 47, pp 31-40, 1994). Hen's fertile eggs were incubated at a temperature of 37° C. and in relative humidity 55%, and on the 10th day after the incubation, an air sac site was punched by using a hypodermic needle (Greencross Medical Science Corp, Korea) to form a first hole, and then, a planar site of the fertile egg where a window was to be formed was punched to form a second hole. Air was removed through the first pore of the air sac site to allow the chorioallantoic membrane (CAM) to be separated from the shell of the fertile egg, and this site was cut by using a grinding wheel (Multipro 395JA, Dremel, Mexico) to form a window. […] Through the window, the filter disc was placed on blood vessels, which were then treated with the compounds each dissolved in dimethylsulfoxide (DMSO) and diluted with phosphate buffer solution (PBS) at various concentrations. 3 days after the treatment with the compounds, the CAM site with the filter disc placed thereon was separated, and then washed with a phosphate buffer solution, and an image thereof was obtained by using a stereomicroscope (Stemi SV6 stereomicroscope, Carl Zeiss, Germany) and image-Pro Plus software (Media Cybernetics; Silver Spring, Md., U.S.A.) to count the number of blood vessel branches, and the obtained results were assayed.

A further data set relates to HUVEC cells. Description: VEGF-derived ROS scavenging ability (DCF-DA fluorescence). Format: cell-based. The settings on record: HUVEC pretreated 3 hours, then VEGF 15 minutes, compared to VEGF, FIG. 5. The method, then:
(§1) DCF-DA (2′,7′-dichlorofluorescein diacetate) was used to measure a VEGF-derived ROS scavenging ability in HUVEC cells. When ROS exists in cells, DCF-DA is oxidized into fluorescent DCF, thereby emitting green fluorescent light. 1×10^5 concentration of HUVEC was spread onto a 0.2% gelatin coated 8-well plate, and then incubated for 24 hours. The cells were pretreated with Compounds 6a or 6i for 3 hours and then, treated with VEGF for 15 minutes, and then, washed three times with PBS (pH 7.4), and then, 10 μM of DCF-DA was added to EBM-2 medium, which was then placed in dark condition for 30 minutes. Then, the cells were washed three times with PBS, and a degree of intracellular fluorescence was measured by using a fluorescent microscope.

The subject of another data set is A549 lung cancer cells. Description: Oncogenesis-derived angiogenesis and tumor growth on CAM inoculated with A549 lung cancer cells. Format: in vivo, chick. The conditions noted are these: A549 cells 1.5×10^6 cell/CAM, various concentrations, five days after inoculation; FIG. 4. As for the experimental part: Hen's fertile eggs were incubated, and on the 9th day, a window was formed in the same manner as in Experimental Example 1, and instead of a disc, A549 lung cancer cells were mixed with matrigel at a ratio of 1:1, and then the cells were treated with Compounds 6a and 6i and inoculated at a concentration of 1.5×10^6 cell/CAM. Five days after the inoculation, the CAM site where tumors developed was separated and washed with a phosphate buffer solution, and then, an image thereof was obtained by using a stereomicroscope (Stemi SV6 stereomicroscope, Carl Zeiss, Germany) and Image-Pro Plus software (Media Cybernetics; Silver Spring, Md., U.S.A.) to count the number of blood vessel branches, and the results were assayed.

Data set [2] deals with ARPE-19 (adult retinal pigment epithelium-19) cell line. The data set can be described thus: Macular degeneration risk factor-derived ROS scavenging ability. The conditions noted are these: compared to a control. Format: cell-based. The method, then:
as §1
The same experiment as used in Experimental Example 3 was performed, except that ARPE-19 (adult retinal pigment epithelium-19) cell line was treated with 4-hydroxynonenal (4-HNE) or angiotensin II (Ang II), which are macular degeneration risk factors, to identify ROS scavenging ability of Compound 6a.

A further data set concerns Male Balb/c mice. Description: Toxicity test, single oral administration. It is filed as in vivo. The conditions noted are these: once, 0.5 g/kg, 1 g/kg and 2 g/kg in 0.5% methylcellose, 7 days. The method, then: Male Balb/c mice were orally administered once with Compound 6a suspended in a 0.5% methylcellose solution, in a dosage of each of 0.5 g/kg, 1 g/kg, and 2 g/kg, and then, for 7 days, the survival rate and body weight of the mice were measured.
After the administration, the death, clinical symptoms, and body weight change of the mice were analyzed, and a hematological examination and a blood biochemical examination were performed. Then, the autopsy of the mice was performed, and abnormality of abdominal cavity organs and thoracic cavity organs was examined.

Like-named read-outs stand apart in the source and are kept apart here.

By IC50 is commonly meant the midpoint of a concentration-inhibition curve. Take `Cc1nc(Nc2ccc([N+](=O)[O-])cc2)c(C)c(C)c1O` [Compound 6i, 2,4,5-trimethyl-6-((4-nitrophenyl)amino)pyridin-3-ol]: the inhibition in vivo at 1 µM in data set [1] (Gallus gallus, 72 h, VEGF (50 ng/CAM) + 3.0 ng/CAM, 1.0 μM, 3 days after treatment, read-out: Inhibition ratio) was found to be 74.9 ± 4.9%. Also, the IC50 in data set [1] (Gallus gallus) is 1.8 nM. In addition, in data set [1] (VEGF (50 ng/CAM) + 3.0 ng/CAM, 1.0 μM, 3 days after treatment), the “Number of blood vessel branches/main blood vessel” value is 26.3 ± 1.6^8. For the same compound, the “degree of intracellular fluorescence (VEGF-derived ROS)” value with HUVEC cells is “substantial decrease”. Further, in the data set with A549 lung cancer cells, the oncogenesis-derived angiogenesis result is recorded as “inhibited” and the tumor growth entry is given as “inhibited”.

In the case of `Cc1nc(N)c(C)c(C)c1O` [Compound 6a, 6-amino-2,4,5-trimethylpyridin-3-ol], the inhibition in vivo at 0.1 µM in data set [1] (Gallus gallus, 72 h, VEGF (50 ng/CAM) + 0.15 ng/CAM, 0.1 μM, 3 days after treatment, read-out: Inhibition ratio) worked out at 64 ± 8.8%. In addition, the inhibition in vivo at 1 µM in data set [1] (Gallus gallus, 72 h, VEGF (50 ng/CAM) + 1.5 ng/CAM, 1 μM, 3 days after treatment, read-out: Inhibition ratio) came to 76.3 ± 5.2%. In addition, the IC50 in data set [1] (Gallus gallus) was 2 nM. For the same compound, the “Number of blood vessel branches/main blood vessel” value in data set [1] (VEGF (50 ng/CAM) + 0.15 ng/CAM, 0.1 μM, 3 days after treatment) is recorded as 28 ± 3.3^8. Further, in data set [1] (VEGF (50 ng/CAM) + 1.5 ng/CAM, 1 μM, 3 days after treatment), the “Number of blood vessel branches/main blood vessel” value is 23.3 ± 2.0^8. The angiogenesis inhibiting effects entry in data set [1] (VEGF-treated CAM, summary of Table 1, 6a compared with SU4312, batimastat and α-tocopherol) is listed as “excellent angiogenesis inhibiting effects even at low concentration”. In addition, in the data set on HUVEC cells, the “degree of intracellular fluorescence (VEGF-derived ROS)” value is “substantial decrease”. In addition, the “degree of intracellular fluorescence (ROS), 4-hydroxynonenal (4-HNE)” value in data set [2] (ARPE-19 treated with 4-HNE, FIG. 7) was “substantially decreased”. Moreover, in data set [2] (ARPE-19 treated with Ang II, FIG. 6), the “degree of intracellular fluorescence (ROS), angiotensin II (Ang II)” value is “substantially decreased”. In addition, in the data set with A549 lung cancer cells, the oncogenesis-derived angiogenesis result was “inhibited” and the tumor growth result is listed as “inhibited”. Moreover, in the data set with Male Balb/c mice, the “body weight change, blood examination, blood biochemical examination, and autopsy results” value is “no toxicity change”; the clinical symptoms entry is “did not have distinguishing clinical symptoms”; the death entry is listed as “did not die”.
